Measurements published in patent US11504320B2, “Use of naturally glycosylated polyphenols as protective agents against the effects of ultraviolet irradiation” (MEDENA AG, priority 2017, dated 2022).
Entries after “also recorded” stand apart in the source; their conditions may differ. Where two headings read alike, the source gives them in different places. Marks after values point to notes of the source that are not given here.

How the values were obtained:
[1] = Broad band UVB and UVA absorption (SPF and UVA/UVB ratio) of sunscreens; assay type: physicochemical; details: for SPF1 (sun protection factor corresponding to UVB absorption): 250 μM sunscreen; for SPF2 (sun protection factor corresponding to UVB absorption): 10% (weight %) sunscreen
Description: For the invention as claimed data are presented in support of the surprising finding that definite naturally glycosylated polyphenols provide optimal photo-protection due to several reasons. They effectively absorb broad-band range of UV light in both spectrum regions: UVA and UVB. […] The efficacy of absorption is expressed as SPF (sun protection factor) for UVB range representing an integral of absorption within the whole UVB spectrum. The efficacy of absorption is also calculated as the UVA/UVB ratio showing that the ratio should be greater than 0.5 up to 1.2 in order to provide proper UVA protection.

[2] = Photo stability: effect of solar simulating UV irradiation on SPF values of sunscreens; assay type: physicochemical; details: for SPF after UV irradiation: fifty μM solution
Description: Fifty μM sunscreen solutions placed in 3.5 cm Petri dishes were irradiated by 66% UVA+33% UVB for 1, 3, 20, and 40 min. Final doses of UV irradiation were 0.15, 0.45, 3.0, and 6.0 J/cm^2, respectively. * p<0.05 vs background SPF; ** p<0.01 vs background SPF.

skin cells = assay: Photo-chemo-toxicity (photo-chemo damage to skin cells); assay type: cell-based
Text: This is true for quercetin and its alpha-glycosylated derivative, resveratrol, chalcone and many others. The phenomenon of photo-chemo-toxicity depends of UV-induced destruction of the parent molecule and cytotoxicity exerted by the formed metabolites.

[3] = UV (66% UVA + 33% UVB) 0 J/cm^2
[4] = UV (66% UVA + 33% UVB) 0.15 J/cm^2 (1 min)
[5] = UV (66% UVA + 33% UVB) 0.45 J/cm^2 (3 min)
[6] = UV (66% UVA + 33% UVB) 3.0 J/cm^2 (20 min)
[7] = UV (66% UVA + 33% UVB) 6.0 J/cm^2 (40 min)
[8] = solar simulated UVB+UVA irradiation

Compound | UVA/UVB (ratio of UVA to UVB absorption) [1] | SPF1 (sun protection factor corresponding to UVB absorption) [1] | SPF2 (sun protection factor corresponding to UVB absorption) [1] | SPF after UV irradiation [2, 3] | SPF after UV irradiation [2, 6] | SPF after UV irradiation [2, 7] | Photo-stability on exposure to UV irradiation (in words) [2, 8] | further results
O=c1cc(-c2ccccc2)oc2cc(O)c(O)c(O)c12 [Baicalein] | 1.14 | 3.65 ± 0.12 | 5.41 ± 0.12 | 3.68 ± 0.15 | 3.69 ± 0.12 | 3.79 ± 0.12 | easily destructed | SPF after UV irradiation [2, 4]: 3.63 ± 0.12; SPF after UV irradiation [2, 5]: 3.62 ± 0.13
O=C(/C=C/c1ccccc1)c1ccccc1 [Ghalcone] |  |  |  |  |  |  |  | Photo-chemo-toxicity (in words) (skin cells; skin cells, UV): photo-chemo-toxicity
O=c1c(O)c(-c2ccc(O)cc2O)oc2cc(O)cc(O)c12 [Morin] | 1.70 | 2.63 ± 0.08 | 3.48 ± 0.12 |  |  |  |  | 
O=c1c(O)c(-c2ccc(O)c(O)c2)oc2cc(O)cc(O)c12 [Quercetin] |  |  |  |  |  |  | photo-unstable | Photo-chemo-toxicity (in words) (skin cells): photo-chemo-toxicity; Photo-stability on exposure to UV irradiation (in words) ([2]; solar simulated UVB+UVA irradiation, listed as quercetin): unstable to exposure to UV irradiation; also recorded: easily destructed
Oc1ccc(C=Cc2cc(O)cc(O)c2)cc1 [Resveratrol] |  |  |  | 11.98 ± 0.11 | 4.93 ± 0.16 | 4.63 ± 0.10 | unstable to exposure to UV irradiation; also recorded: easily destructed | Photo-chemo-toxicity (in words) (skin cells): photo-chemo-toxicity; SPF after UV irradiation [2, 4]: 4.81 ± 0.20**; SPF after UV irradiation [2, 5]: 4.25 ± 0.20
O=C1c2c(O)cc(O)cc2O[C@H](c2ccc(O)c(O)c2)[C@H]1O [Taxifolin] | 0.46 | 6.38 ± 0.12 | 8.39 ± 0.14 | 6.38 ± 0.12 | 6.38 ± 0.12 | 6.39 ± 0.12 |  | 
C[C@@H]1O[C@@H](O[C@@H]2[C@@H](O)[C@H](OCCc3ccc(O)c(O)c3)O[C@H](CO)[C@H]2OC(=O)/C=C/c2ccc(O)c(O)c2)[C@H](O)[C@H](O)[C@H]1O [Verbascoside] | 0.59 | 8.25 ± 0.09 | 5.29 ± 0.09 | 8.25 ± 0.09 | 8.23 ± 0.12 | 8.26 ± 0.10 |  | 
O=c1c(O)c(-c2ccc(O)cc2)oc2cc(O)cc(O)c12 [kaempferol] |  |  |  |  |  |  | unstable to exposure to UV irradiation | Photo-stability on exposure to UV irradiation (in words) ([2]; solar simulated UVB+UVA irradiation, listed as kaempherol): easily destructed
O=c1c(O)c(-c2cc(O)c(O)c(O)c2)oc2cc(O)cc(O)c12 [myricetin] |  |  |  |  |  |  | easily destructed | 
COc1cc(/C=C/C(=O)O)ccc1O [trans-Ferulic acid] |  |  |  | 7.34 ± 0.18 | 3.61 ± 0.13 | 3.74 ± 0.17 |  | SPF after UV irradiation [2, 4]: 5.34 ± 0.09**; SPF after UV irradiation [2, 5]: 3.91 ± 0.11
Leontopodic acids | 0.51 | 11.83 ± 0.12 | 6.79 ± 0.12 |  |  |  |  | 
alpha-glycosyl quercetin [alpha-glycosylated derivative] |  |  |  |  |  |  |  | Photo-chemo-toxicity (in words) (skin cells): photo-chemo-toxicity; Photo-stability on exposure to UV irradiation (in words) [2]: photo-unstable
